From ChEMBL document CHEMBL1148788 (J Med Chem, 2007) come the findings set out here.

For assay [1], the target named is Neuronal acetylcholine receptor; alpha4/beta2 (Rattus norvegicus, UniProt P09483+P12390). Put plainly: Displacement of [3H]epibatidine from rat recombinant alpha-4-beta-2 nAChR in HEK293 cell line. The assay is classed as cell-based. As to conditions: for pKi: hek293; for Ki: read-out: Ki. (In general: Displacement assays read how much labelled ligand stays bound in the presence of the test substance.)
Sequence of Neuronal acetylcholine receptor; alpha4/beta2 (P09483 whole entry): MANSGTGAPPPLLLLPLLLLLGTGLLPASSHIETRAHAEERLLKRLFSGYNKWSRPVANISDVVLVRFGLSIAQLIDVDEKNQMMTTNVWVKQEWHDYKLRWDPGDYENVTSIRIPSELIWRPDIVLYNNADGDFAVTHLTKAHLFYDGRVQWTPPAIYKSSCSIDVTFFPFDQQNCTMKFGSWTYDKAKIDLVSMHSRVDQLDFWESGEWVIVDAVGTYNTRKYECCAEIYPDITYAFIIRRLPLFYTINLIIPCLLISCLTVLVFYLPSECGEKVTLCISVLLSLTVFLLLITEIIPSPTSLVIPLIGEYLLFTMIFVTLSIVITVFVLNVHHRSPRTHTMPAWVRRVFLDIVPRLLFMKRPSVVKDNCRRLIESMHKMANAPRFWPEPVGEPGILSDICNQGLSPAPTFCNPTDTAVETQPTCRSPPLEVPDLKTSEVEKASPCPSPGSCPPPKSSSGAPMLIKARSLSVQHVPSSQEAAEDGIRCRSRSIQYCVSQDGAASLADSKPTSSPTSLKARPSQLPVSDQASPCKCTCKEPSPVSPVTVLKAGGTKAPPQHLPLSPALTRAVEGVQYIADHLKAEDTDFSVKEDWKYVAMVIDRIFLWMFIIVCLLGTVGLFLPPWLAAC
Sequence of Neuronal acetylcholine receptor; alpha4/beta2 (P12390 whole entry): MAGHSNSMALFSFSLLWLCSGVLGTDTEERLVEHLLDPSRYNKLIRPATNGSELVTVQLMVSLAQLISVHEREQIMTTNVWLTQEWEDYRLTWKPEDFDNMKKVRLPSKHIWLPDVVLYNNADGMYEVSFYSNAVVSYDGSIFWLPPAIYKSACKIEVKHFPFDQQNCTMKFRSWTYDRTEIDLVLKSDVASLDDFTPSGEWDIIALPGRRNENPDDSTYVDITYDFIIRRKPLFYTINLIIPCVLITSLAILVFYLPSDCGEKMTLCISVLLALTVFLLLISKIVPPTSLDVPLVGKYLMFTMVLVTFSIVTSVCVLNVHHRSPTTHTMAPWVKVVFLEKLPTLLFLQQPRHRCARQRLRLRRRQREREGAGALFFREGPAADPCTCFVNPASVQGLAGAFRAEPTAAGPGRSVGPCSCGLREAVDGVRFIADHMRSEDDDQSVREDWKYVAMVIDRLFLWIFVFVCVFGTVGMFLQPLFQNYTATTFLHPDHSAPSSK

Assay [2] has as its target T1, Neuronal acetylcholine receptor; alpha3/beta4 (Rattus norvegicus, UniProt P04757+P12392). As to the kind of experiment: Displacement of [3H]epibatidine from recombinant rat alpha-3-beta-4 nAChr in HEK293 cell line. As to conditions: for pKi: hek293. Format: cell-based.
The target of assay [3] is Neuronal acetylcholine receptor; alpha4/beta4 (Rattus norvegicus, UniProt P09483+P12392). As to the kind of experiment: Displacement of [3H]epibatidine from recombinant rat alpha-4-beta-4 nAChr in HEK293 cell line. Format: cell-based. The note with it: for pKi: hek293.
Sequence of Neuronal acetylcholine receptor; alpha4/beta4 (P09483 whole entry): as the sequence (P09483 whole entry) above
Sequence of Neuronal acetylcholine receptor; alpha4/beta4 (P12392 whole entry): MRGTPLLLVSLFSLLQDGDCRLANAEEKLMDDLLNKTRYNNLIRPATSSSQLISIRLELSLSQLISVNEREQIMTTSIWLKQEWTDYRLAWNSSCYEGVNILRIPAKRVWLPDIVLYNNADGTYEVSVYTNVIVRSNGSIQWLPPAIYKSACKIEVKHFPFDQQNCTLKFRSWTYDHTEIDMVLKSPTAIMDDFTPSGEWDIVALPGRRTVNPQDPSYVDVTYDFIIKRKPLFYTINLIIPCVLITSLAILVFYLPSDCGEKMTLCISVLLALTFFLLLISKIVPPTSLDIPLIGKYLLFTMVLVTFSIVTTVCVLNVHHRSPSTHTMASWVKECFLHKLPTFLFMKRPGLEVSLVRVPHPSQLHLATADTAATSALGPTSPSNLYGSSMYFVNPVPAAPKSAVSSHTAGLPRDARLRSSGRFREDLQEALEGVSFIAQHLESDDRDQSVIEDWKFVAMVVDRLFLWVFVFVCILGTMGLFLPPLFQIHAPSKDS
Assay [4] concerns the target T2, Neuronal acetylcholine receptor subunit alpha-7 (Homo sapiens, UniProt P36544). Put plainly: Displacement of [3H]methyllycaconitine from human alpha-7 in tsA201 cells coexpressed with 5HT3A receptor. The assay is classed as cell-based.
Assay [5] concerns the target T2, Neuronal acetylcholine receptor subunit alpha-7. As to the kind of experiment: Displacement of [3H]methyllycaconitine from alpha7 nAChR in tsA201 cells co-expressed with Ric3. Format: cell-based.
Assay [6] has as its target T3, 5-hydroxytryptamine receptor 3A (Homo sapiens, UniProt P46098).
T3 sequence (P46098 whole entry): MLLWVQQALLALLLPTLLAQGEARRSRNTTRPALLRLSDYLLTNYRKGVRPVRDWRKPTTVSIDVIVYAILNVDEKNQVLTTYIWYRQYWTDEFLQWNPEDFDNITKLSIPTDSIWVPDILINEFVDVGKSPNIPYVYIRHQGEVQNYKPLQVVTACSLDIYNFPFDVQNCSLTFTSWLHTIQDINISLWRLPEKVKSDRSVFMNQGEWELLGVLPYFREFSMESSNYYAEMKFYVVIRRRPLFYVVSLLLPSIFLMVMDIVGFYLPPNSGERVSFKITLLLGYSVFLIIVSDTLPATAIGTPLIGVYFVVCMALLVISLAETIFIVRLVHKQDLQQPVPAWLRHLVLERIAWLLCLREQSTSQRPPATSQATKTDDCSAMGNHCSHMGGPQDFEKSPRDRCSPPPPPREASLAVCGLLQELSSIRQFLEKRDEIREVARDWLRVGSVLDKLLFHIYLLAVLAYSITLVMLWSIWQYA
Put plainly: Displacement of [3H]GR65630 from human 5HT3A receptor in HEK293 cells. The assay is classed as cell-based. As to conditions: for pKi: hek293.

The target in assay [7] is T2, Neuronal acetylcholine receptor subunit alpha-7. As to the kind of experiment: Antagonist activity at human alpha-7 nAChR in tsA201 cells coexpressed with Ric3 by FMP assay. The assay is classed as functional, cell-based.
For assay [8], the target named is T1, Neuronal acetylcholine receptor; alpha3/beta4. Put plainly: Antagonist activity at rat alpha3beta4 nAChR expressed in HEK293 cells by FMP assay. The assay is classed as functional, cell-based, Homo sapiens. As to conditions: for pIC50: hek293; for IC50: read-out: IC50.
Assay [9] addresses T3, 5-hydroxytryptamine receptor 3A. Put plainly: Antagonist activity at human 5HT3A receptor expressed in HEK293 cells by FMP assay. As to conditions: for IC50: read-out: IC50. The assay is classed as functional, cell-based.
A short description of a further assay: cells. Format: functional, cell-based. The note with it: Homo sapiens, HEK293.
Assay [10] has as its target T4, Glycine receptor subunit alpha-1 (Homo sapiens, UniProt P23415).
T4 sequence (P23415 whole entry): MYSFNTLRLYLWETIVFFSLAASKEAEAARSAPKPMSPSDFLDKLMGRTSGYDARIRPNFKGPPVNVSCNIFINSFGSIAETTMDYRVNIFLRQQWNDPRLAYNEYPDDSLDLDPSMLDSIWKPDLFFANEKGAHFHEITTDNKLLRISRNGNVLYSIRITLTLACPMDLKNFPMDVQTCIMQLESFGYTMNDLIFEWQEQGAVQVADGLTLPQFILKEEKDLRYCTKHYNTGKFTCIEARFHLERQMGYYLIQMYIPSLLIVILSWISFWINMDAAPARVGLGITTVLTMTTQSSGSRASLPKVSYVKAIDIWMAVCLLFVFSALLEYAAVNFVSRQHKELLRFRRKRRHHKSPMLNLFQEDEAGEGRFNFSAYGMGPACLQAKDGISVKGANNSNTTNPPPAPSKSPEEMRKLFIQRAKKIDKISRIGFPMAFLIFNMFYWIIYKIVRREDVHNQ
As to the kind of experiment: Antagonist activity at human glycine alpha-1 receptor in HEK293 cells by FMP assay. As to conditions: for pIC50: hek293. Format: functional, cell-based.

One may read the pKi as the negative decadic logarithm of the Ki, by convention in mol/L. The pIC50 is −log10 of the IC50, conventionally taken in molar units. Low values mean a high IC50, high ones a low IC50.

T1 sequence (P04757 whole entry): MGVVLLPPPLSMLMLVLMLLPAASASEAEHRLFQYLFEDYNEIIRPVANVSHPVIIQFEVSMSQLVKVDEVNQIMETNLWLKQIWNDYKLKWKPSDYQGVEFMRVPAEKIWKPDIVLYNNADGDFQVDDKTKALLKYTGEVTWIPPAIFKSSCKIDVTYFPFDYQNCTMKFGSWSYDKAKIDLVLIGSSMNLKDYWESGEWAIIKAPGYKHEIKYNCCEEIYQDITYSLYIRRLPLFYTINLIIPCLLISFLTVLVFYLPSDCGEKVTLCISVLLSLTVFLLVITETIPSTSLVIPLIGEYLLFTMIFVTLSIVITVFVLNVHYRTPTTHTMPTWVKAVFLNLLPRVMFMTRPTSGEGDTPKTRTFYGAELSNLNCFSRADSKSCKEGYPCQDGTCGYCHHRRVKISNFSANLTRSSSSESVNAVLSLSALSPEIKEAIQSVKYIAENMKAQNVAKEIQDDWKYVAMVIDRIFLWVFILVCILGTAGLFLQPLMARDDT
T1 sequence (P12392 whole entry): as the sequence (P12392 whole entry) above
T2 sequence (P36544 whole entry): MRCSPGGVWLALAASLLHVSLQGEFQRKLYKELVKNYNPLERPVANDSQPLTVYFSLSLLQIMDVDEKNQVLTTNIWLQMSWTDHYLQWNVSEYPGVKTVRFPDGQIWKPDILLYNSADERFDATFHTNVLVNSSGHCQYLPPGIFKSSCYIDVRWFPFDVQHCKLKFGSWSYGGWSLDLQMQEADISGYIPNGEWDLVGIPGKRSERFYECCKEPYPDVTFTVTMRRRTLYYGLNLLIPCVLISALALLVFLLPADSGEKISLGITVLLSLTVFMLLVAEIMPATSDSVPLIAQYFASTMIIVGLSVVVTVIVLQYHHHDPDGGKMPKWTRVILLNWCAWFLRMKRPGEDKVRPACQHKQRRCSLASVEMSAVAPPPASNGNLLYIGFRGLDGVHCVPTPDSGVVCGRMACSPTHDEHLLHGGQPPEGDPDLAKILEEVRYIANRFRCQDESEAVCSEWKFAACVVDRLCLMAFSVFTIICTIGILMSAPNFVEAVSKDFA

`Brc1ccc(C[N+]23CC[C@@H]4[C@@H]5[C@@H]6[C@@H](OCC=C(C2)[C@@H]6C[C@@H]43)N2c3ccccc3[C@@]34CC[N+]6(Cc7ccc(Br)cc7)CC7=CCO[C@H]([C@@H]([C@H]23)[C@H]7C[C@@H]46)N5c2ccccc2)cc1.[Br-].[Br-]` (stereo not given in full): the pKi in [1], in [2] and in assay [3] was below 4 throughout. Moreover, the Ki in assay [1] is above 100 µM; in assay [2], above 100 µM; in assay [3] it was above 100 µM; in assay [4] (read-out: Ki), 0.26 µM; in [4] (read-out: pKi (converted)), 0.251 µM; in [5] (read-out: Ki) it was 0.64 µM. The Ki was 0.631 µM in [5] (read-out: pKi (converted)) and 5.7 µM in assay [6]. Also, the IC50 in assay [7] (read-out: IC50) is 10 µM; in assay [7] (read-out: pIC50 (converted)), 10.5 µM; in [8] it was above 100 µM; in [9], 30 µM; in “cells” (read-out: IC50) it was above 100 µM; in “cells” (read-out: pIC50 (converted)), above 100 µM. The compound also displayed an IC50 in assay [10] above 100 µM. The pIC50 in assay [8] and in assay [10] was below 4 in each case.
Regarding `C[N+](C)(Cc1ccc([N+](=O)[O-])cc1)Cc1c2n(c3ccccc13)Cc1c(C[N+](C)(C)Cc3ccc([N+](=O)[O-])cc3)c3ccccc3n1C2.[Br-].[Br-]`, the pKi in assay [1], in assay [2], in assay [3] and in [6] was below 4 throughout. In addition, the Ki is above 100 µM in assay [1]; above 100 µM in assay [2]; above 100 µM in assay [3]; 2.1 µM in [4] (read-out: Ki); 2 µM in assay [4] (read-out: pKi (converted)); 3.9 µM in assay [5] (read-out: Ki). Further, the Ki in assay [5] (read-out: pKi (converted)) was 3.98 µM; in [6], above 100 µM. Also, the IC50 in [7] (read-out: IC50) is 30 µM; in assay [7] (read-out: pIC50 (converted)), 100 µM; in [8], above 100 µM; in assay [9], 30 µM; in the assay “cells” (read-out: IC50), above 100 µM; in “cells” (read-out: pIC50 (converted)) it was above 100 µM. In [10], this compound yielded an IC50 above 100 µM. Besides, the pIC50 in assay [8] and in assay [10] was below 4 throughout.
Regarding `C[N+]12CCC34c5ccccc5N5/C=C6/[C@H]7C[C@H]8[C@@]9(CC[N+]8(C)C/C7=C/CO)c7ccccc7N(/C=C(/[C@@H](C[C@@H]31)/C(=C\CO)C2)[C@H]54)[C@@H]69.[Cl-].[Cl-]` (stereo not given in full) [TOXIFERINE], the pKi in assay [1], in assay [3] and in assay [6] was below 4 each time. The Ki in [1] was above 100 µM; in [2], 30 µM; in assay [3], above 100 µM; in assay [4] (read-out: Ki), 1.6 µM; in assay [4] (read-out: pKi (converted)), 1.58 µM; in [5] (read-out: Ki), 2.6 µM. Moreover, the Ki is 2.51 µM in assay [5] (read-out: pKi (converted)) and above 100 µM in [6]. Moreover, the IC50 in [7] (read-out: IC50) was 9.5 µM; in assay [7] (read-out: pIC50 (converted)), 9.55 µM; in assay [8] it was 30 µM; in assay [9] it was above 100 µM; in the assay “cells” (read-out: IC50) it was above 100 µM; in “cells” (read-out: pIC50 (converted)), above 100 µM. The same compound gave an IC50 in [10] above 100 µM. The pIC50 in assay [9] (hek293) and in assay [10] was below 4 in each case.
With `C/C=C/C[N+]12CC[C@@H]3[C@@H]4[C@@H]5[C@@H](OCC=C(C1)[C@@H]5C[C@@H]32)N1c2ccccc2[C@@]23CC[N+]5(C/C=C/C)CC6=CCO[C@H]([C@@H]([C@H]12)[C@H]6C[C@@H]35)N4c1ccccc1.[Br-].[Br-]` (stereo not given in full), the pKi in assay [1] is below 4; in assay [3] it was below 4; in [5] (tsa201), 7. For the same compound, the Ki in assay [1] was above 100 µM; in assay [2], 100 µM; in [3], above 100 µM; in [4] (read-out: Ki), 0.23 µM; in assay [4] (read-out: pKi (converted)) it was 0.251 µM; in assay [5] (read-out: Ki) it was 0.1 µM. In [6], this compound showed a Ki of 15 µM. For the same compound, the IC50 is 1.1 µM in assay [7] (read-out: IC50); 1.15 µM in assay [7] (read-out: pIC50 (converted)); 100 µM in assay [8]; 100 µM in [9]; above 100 µM in the assay “cells” (read-out: IC50); above 100 µM in “cells” (read-out: pIC50 (converted)). Besides, the IC50 in assay [10] is above 100 µM. In addition, the pIC50 in [10] is recorded as below 4.
With `COc1ccc(C[N+]23CC[C@@H]4[C@@H]5[C@@H]6[C@@H](OCC=C(C2)[C@@H]6C[C@@H]43)N2c3ccccc3[C@@]34CC[N+]6(Cc7ccc(OC)c(OC)c7)CC7=CCO[C@H]([C@@H]([C@H]23)[C@H]7C[C@@H]46)N5c2ccccc2)cc1OC.[Cl-].[Cl-]` (stereo not given in full), the pKi in assay [1], in [2] and in assay [3] was below 4 in each case. Besides, the Ki in assay [1] is above 100 µM; in assay [2] it was above 100 µM; in [3] it was above 100 µM; in assay [4] (read-out: Ki), 0.13 µM; in assay [4] (read-out: pKi (converted)) it was 0.126 µM; in assay [5] (read-out: Ki), 0.059 µM. Besides, the Ki in assay [5] (read-out: pKi (converted)) is 0.0631 µM; in assay [6] it was 28 µM. In addition, the IC50 in assay [7] (read-out: IC50) was 1.3 µM; in assay [7] (read-out: pIC50 (converted)) it was 1.32 µM; in assay [8], above 100 µM; in [9], 30 µM; in the assay “cells” (read-out: IC50), above 100 µM; in the assay “cells” (read-out: pIC50 (converted)), above 100 µM. This compound also showed an IC50 in assay [10] above 100 µM. The pIC50 in assay [8] and in [10] was below 4 throughout.
Consider `OC/C=C1/CN2CC[C@H]3[C@@H]2C[C@@H]1/C1=C/N2c4ccccc4[C@@]45CCN6CC7=CCO[C@H]([C@@H]([C@H]24)[C@H]7C[C@H]65)N(c2ccccc2)[C@@H]13`, for which the pKi in assay [1] and in assay [3] was below 4 throughout. Moreover, the Ki was above 100 µM in [1]; 30 µM in assay [2]; above 100 µM in assay [3]; 1.2 µM in assay [4] (read-out: Ki); 1.26 µM in assay [4] (read-out: pKi (converted)); 1.7 µM in assay [5] (read-out: Ki). Moreover, the Ki in assay [5] (read-out: pKi (converted)) was 1.58 µM; in assay [6], 1.9 µM. The IC50 in assay [7] (read-out: IC50) is 1.5 µM; in assay [7] (read-out: pIC50 (converted)) it was 1.51 µM; in assay [8], 16 µM; in [9], 2.5 µM; in the assay “cells” (read-out: IC50), above 100 µM; in “cells” (read-out: pIC50 (converted)) it was above 100 µM. The IC50 in [10] is above 100 µM. In assay [10], the pIC50 is reported as below 4.
`C=CC[N+]12CC[C@@H]3[C@@H]4[C@@H]5[C@@H](OCC=C(C1)[C@@H]5C[C@@H]32)N1c2ccccc2[C@@]23CCN5CC6=CCO[C@H]([C@@H]([C@H]12)[C@H]6C[C@H]53)N4c1ccccc1.[Br-]` (stereo not given in full): the pKi in [1], in assay [2] and in assay [3] was below 4 each time. The Ki in [1] is above 100 µM; in assay [2] it was above 100 µM; in [3] it was above 100 µM; in assay [4] (read-out: Ki) it was 0.071 µM; in [5] (read-out: Ki) it was 0.055 µM; in assay [5] (read-out: pKi (converted)), 0.0501 µM. The compound also registered a Ki in assay [6] of 19 µM. Moreover, the IC50 is 0.34 µM in [7] (read-out: IC50); 0.339 µM in assay [7] (read-out: pIC50 (converted)); 30 µM in assay [8]; 30 µM in [9]; above 100 µM in the assay “cells” (read-out: IC50); above 100 µM in the assay “cells” (read-out: pIC50 (converted)). In assay [10], this compound came in with an IC50 above 100 µM. This compound showed a pIC50 in [10] below 4.
